Data: the kinase profiling compilation of Christmann-Franck et al. (2016)

Legend:
Assay in all cases: KINOMEscan competition binding
Details in all cases: compound 10.0 µM
TRPM6 (human) = TRPM6 (human) (UniProt Q9BX84)
STK17A (human) = STK17A (human) (UniProt Q9UEE5)
ICK (human) = ICK (human) (UniProt Q9UPZ9)
EPHA3 (human) = EPHA3 (human) (UniProt P29320)
GRK1 (human) = GRK1 (human) (UniProt Q15835)
STK38 (human) = STK38 (human) (UniProt Q15208)
MYLK4 (human) = MYLK4 (human) (UniProt Q86YV6)
[1] = target: JAK2 JH1 catalytic (human) (UniProt O60674)
JAK2 JH1 catalytic (human), sequence (O60674 whole entry, looked up): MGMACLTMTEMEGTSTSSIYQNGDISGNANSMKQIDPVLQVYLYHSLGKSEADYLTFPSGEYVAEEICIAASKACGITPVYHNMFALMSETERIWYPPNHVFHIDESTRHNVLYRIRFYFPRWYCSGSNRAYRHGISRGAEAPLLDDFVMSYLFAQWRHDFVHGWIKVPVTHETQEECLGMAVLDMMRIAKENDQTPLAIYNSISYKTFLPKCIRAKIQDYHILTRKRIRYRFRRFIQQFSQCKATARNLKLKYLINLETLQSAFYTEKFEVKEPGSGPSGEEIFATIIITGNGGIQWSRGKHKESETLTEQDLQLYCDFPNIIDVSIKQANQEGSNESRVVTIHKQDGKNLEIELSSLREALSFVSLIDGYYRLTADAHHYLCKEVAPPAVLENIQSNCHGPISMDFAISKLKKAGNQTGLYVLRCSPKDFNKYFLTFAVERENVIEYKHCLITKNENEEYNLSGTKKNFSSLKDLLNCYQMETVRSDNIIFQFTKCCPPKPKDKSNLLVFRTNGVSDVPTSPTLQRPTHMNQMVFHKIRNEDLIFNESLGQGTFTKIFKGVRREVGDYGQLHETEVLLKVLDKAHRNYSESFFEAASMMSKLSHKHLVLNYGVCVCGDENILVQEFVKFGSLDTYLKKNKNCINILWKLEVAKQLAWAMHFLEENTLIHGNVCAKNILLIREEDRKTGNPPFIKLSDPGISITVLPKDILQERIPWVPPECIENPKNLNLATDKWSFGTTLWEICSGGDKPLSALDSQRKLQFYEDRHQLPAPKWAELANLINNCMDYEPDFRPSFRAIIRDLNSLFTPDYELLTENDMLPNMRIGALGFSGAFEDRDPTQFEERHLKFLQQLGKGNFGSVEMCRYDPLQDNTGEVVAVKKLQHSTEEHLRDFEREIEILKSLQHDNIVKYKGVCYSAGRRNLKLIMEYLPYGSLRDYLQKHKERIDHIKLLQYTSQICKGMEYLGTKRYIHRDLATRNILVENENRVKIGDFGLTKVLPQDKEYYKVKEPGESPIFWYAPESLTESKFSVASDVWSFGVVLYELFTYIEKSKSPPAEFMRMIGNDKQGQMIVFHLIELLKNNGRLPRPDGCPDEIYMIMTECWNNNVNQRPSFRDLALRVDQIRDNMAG

MELK (human) = MELK (human) (UniProt Q14680)
PIK3CA (human) = PIK3CA (human) (UniProt P42336)
PTK6 (human) = PTK6 (human) (UniProt Q13882)
GSK3B (human) = GSK3B (human) (UniProt P49841)
TTK (human) = TTK (human) (UniProt P33981)
MAPK4 (human) = MAPK4 (human) (UniProt P31152)
MST4 (human) = MST4 (human) (UniProt Q9P289)
AXL (human) = AXL (human) (UniProt P30530)
FES (human) = FES (human) (UniProt P07332)
MAPK7 (human) = MAPK7 (human) (UniProt Q13164)
MAP4K3 (human) = MAP4K3 (human) (UniProt Q8IVH8)
INSR (human) = INSR (human) (UniProt P06213)
TAOK1 (human) = TAOK1 (human) (UniProt Q7L7X3)
TNK2 (human) = TNK2 (human) (UniProt Q07912)
WEE2 (human) = WEE2 (human) (UniProt P0C1S8)
STK3 (human) = STK3 (human) (UniProt Q13188)
MAPK6 (human) = MAPK6 (human) (UniProt Q16659)
SGK110 (human) = SGK110 (human) (UniProt P0C264)
MAK (human) = MAK (human) (UniProt P20794)
LIMK1 (human) = LIMK1 (human) (UniProt P53667)
ACVR1 (human) = ACVR1 (human) (UniProt Q04771)
MST1R (human) = MST1R (human) (UniProt Q04912)
DSTYK (human) = DSTYK (human) (UniProt Q6XUX3)
ROCK1 (human) = ROCK1 (human) (UniProt Q13464)
NEK1 (human) = NEK1 (human) (UniProt Q96PY6)
ROS1 (human) = ROS1 (human) (UniProt P08922)
ROS1 (human), sequence (P08922 whole entry, looked up): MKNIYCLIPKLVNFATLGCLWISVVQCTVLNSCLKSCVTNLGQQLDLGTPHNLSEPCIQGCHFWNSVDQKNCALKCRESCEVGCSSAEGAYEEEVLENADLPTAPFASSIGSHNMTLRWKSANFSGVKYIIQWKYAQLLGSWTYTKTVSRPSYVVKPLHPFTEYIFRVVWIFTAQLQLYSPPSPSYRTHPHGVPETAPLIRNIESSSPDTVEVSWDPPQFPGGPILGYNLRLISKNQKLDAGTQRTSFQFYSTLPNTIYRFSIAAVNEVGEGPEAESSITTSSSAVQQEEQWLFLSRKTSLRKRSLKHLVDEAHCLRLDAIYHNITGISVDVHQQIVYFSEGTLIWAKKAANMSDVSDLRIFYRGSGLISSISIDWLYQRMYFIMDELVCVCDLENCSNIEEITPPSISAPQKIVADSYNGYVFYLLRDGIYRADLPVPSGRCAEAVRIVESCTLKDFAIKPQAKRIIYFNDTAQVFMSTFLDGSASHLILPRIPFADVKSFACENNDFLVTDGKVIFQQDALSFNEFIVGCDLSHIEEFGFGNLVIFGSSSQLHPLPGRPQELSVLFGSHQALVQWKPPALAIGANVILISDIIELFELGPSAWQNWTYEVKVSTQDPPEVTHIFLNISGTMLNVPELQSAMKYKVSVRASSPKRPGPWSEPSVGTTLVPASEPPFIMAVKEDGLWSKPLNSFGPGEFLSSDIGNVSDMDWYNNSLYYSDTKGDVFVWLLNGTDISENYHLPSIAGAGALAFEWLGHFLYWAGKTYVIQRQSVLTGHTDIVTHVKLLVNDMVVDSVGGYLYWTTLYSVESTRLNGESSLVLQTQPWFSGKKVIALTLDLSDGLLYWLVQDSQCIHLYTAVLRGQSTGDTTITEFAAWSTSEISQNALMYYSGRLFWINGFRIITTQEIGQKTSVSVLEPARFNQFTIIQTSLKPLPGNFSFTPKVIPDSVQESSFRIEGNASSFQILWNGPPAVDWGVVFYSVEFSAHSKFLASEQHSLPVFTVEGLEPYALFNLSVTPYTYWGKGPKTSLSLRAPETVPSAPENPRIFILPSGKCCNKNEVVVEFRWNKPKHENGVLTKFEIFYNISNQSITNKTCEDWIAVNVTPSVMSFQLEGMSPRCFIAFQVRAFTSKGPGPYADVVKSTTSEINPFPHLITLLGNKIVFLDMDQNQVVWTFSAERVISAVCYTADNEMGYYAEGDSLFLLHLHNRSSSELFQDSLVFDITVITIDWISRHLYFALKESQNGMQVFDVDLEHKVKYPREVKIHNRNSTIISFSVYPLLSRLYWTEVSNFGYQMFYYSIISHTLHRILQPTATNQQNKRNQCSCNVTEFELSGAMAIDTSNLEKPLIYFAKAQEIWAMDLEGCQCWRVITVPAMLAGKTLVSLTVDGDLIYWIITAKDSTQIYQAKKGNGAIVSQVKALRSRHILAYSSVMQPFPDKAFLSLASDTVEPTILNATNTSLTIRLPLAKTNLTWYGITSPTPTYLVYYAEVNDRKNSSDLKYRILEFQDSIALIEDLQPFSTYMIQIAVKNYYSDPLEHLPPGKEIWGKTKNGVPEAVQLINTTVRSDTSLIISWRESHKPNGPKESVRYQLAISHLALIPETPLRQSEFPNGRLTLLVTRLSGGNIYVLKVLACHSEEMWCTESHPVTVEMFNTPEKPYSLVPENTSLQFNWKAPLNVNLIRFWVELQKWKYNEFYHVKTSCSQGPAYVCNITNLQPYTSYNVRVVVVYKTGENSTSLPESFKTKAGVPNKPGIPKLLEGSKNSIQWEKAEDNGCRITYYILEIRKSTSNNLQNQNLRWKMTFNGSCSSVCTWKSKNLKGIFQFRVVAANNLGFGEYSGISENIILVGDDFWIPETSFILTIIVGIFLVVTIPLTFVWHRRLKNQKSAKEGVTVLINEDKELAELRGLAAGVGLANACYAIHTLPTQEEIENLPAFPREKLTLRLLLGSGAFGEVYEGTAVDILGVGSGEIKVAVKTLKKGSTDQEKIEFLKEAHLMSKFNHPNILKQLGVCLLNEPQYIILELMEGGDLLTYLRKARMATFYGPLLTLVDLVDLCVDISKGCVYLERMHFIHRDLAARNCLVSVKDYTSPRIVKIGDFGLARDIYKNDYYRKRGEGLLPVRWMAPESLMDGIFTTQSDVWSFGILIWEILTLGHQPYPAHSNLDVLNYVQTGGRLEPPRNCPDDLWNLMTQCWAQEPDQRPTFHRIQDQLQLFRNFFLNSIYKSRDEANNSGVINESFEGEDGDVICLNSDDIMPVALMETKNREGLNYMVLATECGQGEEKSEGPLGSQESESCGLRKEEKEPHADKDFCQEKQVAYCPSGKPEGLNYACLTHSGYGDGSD

CLK3 (human) = CLK3 (human) (UniProt P49761)
PI4KB (human) = PI4KB (human) (UniProt Q9UBF8)
PI4KB (human), sequence (Q9UBF8 whole entry, looked up): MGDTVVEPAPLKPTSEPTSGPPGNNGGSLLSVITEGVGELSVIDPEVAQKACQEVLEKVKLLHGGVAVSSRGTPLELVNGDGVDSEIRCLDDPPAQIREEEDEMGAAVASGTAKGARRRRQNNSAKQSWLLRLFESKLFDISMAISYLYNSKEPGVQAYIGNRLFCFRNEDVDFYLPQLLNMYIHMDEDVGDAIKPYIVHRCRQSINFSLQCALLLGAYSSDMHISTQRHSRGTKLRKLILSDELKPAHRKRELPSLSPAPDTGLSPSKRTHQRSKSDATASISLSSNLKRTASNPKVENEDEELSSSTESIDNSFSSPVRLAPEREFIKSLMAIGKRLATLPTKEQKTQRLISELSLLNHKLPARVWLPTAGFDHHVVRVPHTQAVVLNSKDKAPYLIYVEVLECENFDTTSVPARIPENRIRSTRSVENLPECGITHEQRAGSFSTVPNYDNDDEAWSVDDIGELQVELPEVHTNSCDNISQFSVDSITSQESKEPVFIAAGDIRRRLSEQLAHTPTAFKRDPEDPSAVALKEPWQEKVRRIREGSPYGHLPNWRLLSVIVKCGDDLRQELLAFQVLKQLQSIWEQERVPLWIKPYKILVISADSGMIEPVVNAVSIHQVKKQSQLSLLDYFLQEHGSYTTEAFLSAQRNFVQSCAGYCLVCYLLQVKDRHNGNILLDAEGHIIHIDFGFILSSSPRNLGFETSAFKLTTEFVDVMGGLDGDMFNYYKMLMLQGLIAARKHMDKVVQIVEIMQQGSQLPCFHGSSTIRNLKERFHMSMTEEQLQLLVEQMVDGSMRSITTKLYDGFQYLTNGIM

PAK7 (human) = PAK7 (human) (UniProt Q9P286)
DYRK1A (human) = DYRK1A (human) (UniProt Q13627)
YES1 (human) = YES1 (human) (UniProt P07947)
ADCK3 (human) = ADCK3 (human) (UniProt Q8NI60)
PIM1 (human) = PIM1 (human) (UniProt P11309)
PIM1 (human), sequence (P11309 whole entry, looked up): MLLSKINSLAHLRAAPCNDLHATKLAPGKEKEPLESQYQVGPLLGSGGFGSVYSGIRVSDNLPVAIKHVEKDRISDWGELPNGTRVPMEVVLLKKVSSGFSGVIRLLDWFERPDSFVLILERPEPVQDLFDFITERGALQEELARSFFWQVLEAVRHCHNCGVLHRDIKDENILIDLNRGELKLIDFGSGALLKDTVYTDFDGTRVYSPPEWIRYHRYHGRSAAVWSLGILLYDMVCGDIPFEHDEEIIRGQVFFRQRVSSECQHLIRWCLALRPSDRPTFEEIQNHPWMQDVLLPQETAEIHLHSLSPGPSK

STK17A (human), sequence (Q9UEE5 whole entry, looked up): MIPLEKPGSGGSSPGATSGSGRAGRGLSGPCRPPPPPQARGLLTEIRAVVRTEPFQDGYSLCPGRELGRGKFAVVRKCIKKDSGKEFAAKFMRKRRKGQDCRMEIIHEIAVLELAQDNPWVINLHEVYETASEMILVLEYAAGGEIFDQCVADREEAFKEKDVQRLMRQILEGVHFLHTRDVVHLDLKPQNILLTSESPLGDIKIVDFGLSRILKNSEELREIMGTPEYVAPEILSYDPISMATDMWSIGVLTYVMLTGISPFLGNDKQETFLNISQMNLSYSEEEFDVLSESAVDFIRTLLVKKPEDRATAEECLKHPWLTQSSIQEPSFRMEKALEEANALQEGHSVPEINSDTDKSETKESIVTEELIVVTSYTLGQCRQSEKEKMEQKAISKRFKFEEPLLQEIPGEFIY

Compound: COc1cc2ncnc(Nc3cccc(Cl)c3)c2cc1OC
- kinase still bound, per cent of control (TRPM6 (human)): 77%
- kinase still bound, per cent of control (STK17A (human)): 19%
- kinase still bound, per cent of control (ICK (human)): 100%
- kinase still bound, per cent of control (EPHA3 (human)): 28%
- kinase still bound, per cent of control (GRK1 (human)): 100%
- kinase still bound, per cent of control (STK38 (human)): 61%
- kinase still bound, per cent of control (MYLK4 (human)): 78%
- kinase still bound, per cent of control [1]: 46%
- kinase still bound, per cent of control (MELK (human)): 74%
- kinase still bound, per cent of control (PIK3CA (human)): 76%
- kinase still bound, per cent of control (PTK6 (human)): 58%
- kinase still bound, per cent of control (GSK3B (human)): 90%
- kinase still bound, per cent of control (TTK (human)): 61%
- kinase still bound, per cent of control (MAPK4 (human)): 16%
- kinase still bound, per cent of control (MST4 (human)): 84%
- kinase still bound, per cent of control (AXL (human)): 19%
- kinase still bound, per cent of control (FES (human)): 96%
- kinase still bound, per cent of control (MAPK7 (human)): 100%
- kinase still bound, per cent of control (MAP4K3 (human)): 100%
- kinase still bound, per cent of control (INSR (human)): 62%
- kinase still bound, per cent of control (TAOK1 (human)): 38%
- kinase still bound, per cent of control (TNK2 (human)): 61%
- kinase still bound, per cent of control (WEE2 (human)): 81%
- kinase still bound, per cent of control (STK3 (human)): 91%
- kinase still bound, per cent of control (MAPK6 (human)): 33%
- kinase still bound, per cent of control (SGK110 (human)): 65%
- kinase still bound, per cent of control (MAK (human)): 100%
- kinase still bound, per cent of control (LIMK1 (human)): 100%
- kinase still bound, per cent of control (ACVR1 (human)): 74%
- kinase still bound, per cent of control (MST1R (human)): 100%
- kinase still bound, per cent of control (DSTYK (human)): 43%
- kinase still bound, per cent of control (ROCK1 (human)): 41%
- kinase still bound, per cent of control (NEK1 (human)): 77%
- kinase still bound, per cent of control (ROS1 (human)): 61%
- kinase still bound, per cent of control (CLK3 (human)): 100%
- kinase still bound, per cent of control (PI4KB (human)): 44%
- kinase still bound, per cent of control (PAK7 (human)): 90%
- kinase still bound, per cent of control (DYRK1A (human)): 40%
- kinase still bound, per cent of control (YES1 (human)): 38%
- kinase still bound, per cent of control (ADCK3 (human)): 56%
- kinase still bound, per cent of control (PIM1 (human)): 49%

Compound: N#Cc1cc(-c2ccnc(Nc3ccc(-n4cnc(-c5cccnc5)n4)cc3)n2)cc(N2CCOCC2)c1
- kinase still bound, per cent of control (TRPM6 (human)): 100%
- kinase still bound, per cent of control (STK17A (human)): 49%
- kinase still bound, per cent of control (ICK (human)): 2.6%
- kinase still bound, per cent of control (EPHA3 (human)): 58%
- kinase still bound, per cent of control (GRK1 (human)): 100%
- kinase still bound, per cent of control (STK38 (human)): 92%
- kinase still bound, per cent of control (MYLK4 (human)): 26%
- kinase still bound, per cent of control [1]: 0%
- kinase still bound, per cent of control (MELK (human)): 100%
- kinase still bound, per cent of control (PIK3CA (human)): 100%
- kinase still bound, per cent of control (PTK6 (human)): 100%
- kinase still bound, per cent of control (GSK3B (human)): 3.1%
- kinase still bound, per cent of control (TTK (human)): 73%
- kinase still bound, per cent of control (MAPK4 (human)): 5%
- kinase still bound, per cent of control (MST4 (human)): 62%
- kinase still bound, per cent of control (AXL (human)): 28%
- kinase still bound, per cent of control (FES (human)): 91%
- kinase still bound, per cent of control (MAPK7 (human)): 100%
- kinase still bound, per cent of control (MAP4K3 (human)): 6.3%
- kinase still bound, per cent of control (INSR (human)): 78%
- kinase still bound, per cent of control (TAOK1 (human)): 20%
- kinase still bound, per cent of control (TNK2 (human)): 61%
- kinase still bound, per cent of control (WEE2 (human)): 100%
- kinase still bound, per cent of control (STK3 (human)): 100%
- kinase still bound, per cent of control (MAPK6 (human)): 0.95%
- kinase still bound, per cent of control (SGK110 (human)): 78%
- kinase still bound, per cent of control (MAK (human)): 49%
- kinase still bound, per cent of control (LIMK1 (human)): 62%
- kinase still bound, per cent of control (ACVR1 (human)): 23%
- kinase still bound, per cent of control (MST1R (human)): 100%
- kinase still bound, per cent of control (DSTYK (human)): 76%
- kinase still bound, per cent of control (ROCK1 (human)): 52%
- kinase still bound, per cent of control (NEK1 (human)): 57%
- kinase still bound, per cent of control (ROS1 (human)): 17%
- kinase still bound, per cent of control (CLK3 (human)): 59%
- kinase still bound, per cent of control (PI4KB (human)): 100%
- kinase still bound, per cent of control (PAK7 (human)): 21%
- kinase still bound, per cent of control (DYRK1A (human)): 3.1%
- kinase still bound, per cent of control (YES1 (human)): 79%
- kinase still bound, per cent of control (ADCK3 (human)): 38%
- kinase still bound, per cent of control (PIM1 (human)): 78%

Compound: O=c1[nH]c2ccccc2n1C1CCN(Cc2ccc(-c3nc4cc5[nH]cnc5cc4nc3-c3ccccc3)cc2)CC1
- kinase still bound, per cent of control (TRPM6 (human)): 87%
- kinase still bound, per cent of control (STK17A (human)): 100%
- kinase still bound, per cent of control (ICK (human)): 91%
- kinase still bound, per cent of control (EPHA3 (human)): 82%
- kinase still bound, per cent of control (GRK1 (human)): 100%
- kinase still bound, per cent of control (STK38 (human)): 62%
- kinase still bound, per cent of control (MYLK4 (human)): 64%
- kinase still bound, per cent of control [1]: 67%
- kinase still bound, per cent of control (MELK (human)): 77%
- kinase still bound, per cent of control (PIK3CA (human)): 77%
- kinase still bound, per cent of control (PTK6 (human)): 100%
- kinase still bound, per cent of control (GSK3B (human)): 89%
- kinase still bound, per cent of control (TTK (human)): 100%
- kinase still bound, per cent of control (MAPK4 (human)): 100%
- kinase still bound, per cent of control (MST4 (human)): 100%
- kinase still bound, per cent of control (AXL (human)): 45%
- kinase still bound, per cent of control (FES (human)): 100%
- kinase still bound, per cent of control (MAPK7 (human)): 100%
- kinase still bound, per cent of control (MAP4K3 (human)): 100%
- kinase still bound, per cent of control (INSR (human)): 64%
- kinase still bound, per cent of control (TAOK1 (human)): 91%
- kinase still bound, per cent of control (TNK2 (human)): 100%
- kinase still bound, per cent of control (WEE2 (human)): 96%
- kinase still bound, per cent of control (STK3 (human)): 100%
- kinase still bound, per cent of control (MAPK6 (human)): 100%
- kinase still bound, per cent of control (SGK110 (human)): 81%
- kinase still bound, per cent of control (MAK (human)): 100%
- kinase still bound, per cent of control (LIMK1 (human)): 86%
- kinase still bound, per cent of control (ACVR1 (human)): 92%
- kinase still bound, per cent of control (MST1R (human)): 100%
- kinase still bound, per cent of control (DSTYK (human)): 76%
- kinase still bound, per cent of control (ROCK1 (human)): 66%
- kinase still bound, per cent of control (NEK1 (human)): 100%
- kinase still bound, per cent of control (ROS1 (human)): 50%
- kinase still bound, per cent of control (CLK3 (human)): 100%
- kinase still bound, per cent of control (PI4KB (human)): 60%
- kinase still bound, per cent of control (PAK7 (human)): 58%
- kinase still bound, per cent of control (DYRK1A (human)): 90%
- kinase still bound, per cent of control (YES1 (human)): 100%
- kinase still bound, per cent of control (ADCK3 (human)): 100%
- kinase still bound, per cent of control (PIM1 (human)): 93%
